Key:
HBV S-antigen secretion = assay: HBsAg assay (HepG2 HBV S-antigen secretion biological assay); type: cell-based; settings: Hepatitis B virus, HepG2.2.15, 72 h, read-out: EC50, HBV S-antigen secretion
Experimental: HepG2.2.15 cells were grown in flasks microscopically and seeded into 96-well plates at a concentration of 6.0×10^4 cells/well and incubated at 37° C., 5% CO2 overnight.
Source plate preparation. The stock concentration of reference compound and test compounds is 20 mM. Firstly, manually diluted the compound to obtain the first concentration points of 10 μM and 200 μM, respectively. Then a 3-fold, 8 points serial dilution is performed to obtain the 200× source plate.
Source plate compounds were pipetted as follows: 3 μL 200× source plate compounds into sterile 2 mL 96 well plate which contain 297 μL 2% FBS Medium, mix well and transfer 100 μL/well to corresponding cell culture plates. Therefore, the test conditions of the final compounds is 1 μM initiation, 3-fold serial dilution, and 8 concentration points in duplicate.
Incubate the cells at 37° C., 5% CO2 for three days.
24 hours post-seeding, the cells were treated with 200 μl/well of media containing serially diluted compounds in DMSO. DMSO alone was used as the no drug control. The final DMSO concentration in all wells was 0.5%.
The HBsAg kit (Auto Biology-CL 0310) was used to determine the level of secreted HBVsAg. The HBSAg assay was performed as follows: • a) Blance the ELISA kit at room temperature for 30 minutes. • b) Add 50 μL standard solution, sample, positive and negative control to each well of the microplate in the kit. • c) Add 50 μL HBsAg enzyme conjugate to each well. • d) Attach the plate membrane, oscillate for 60 seconds, and incubate at 37° C. for 60 minutes. • e) Add 350 μL washing buffer to each well, shake slightly, discard liquid, repeat 6 times. Then pat 5 times on an absorbent paper towel to dry the hole. • f) Add 50 μL mixture of reagent A and B to each well. Oscillate the microplate for 10 seconds. • g) Cover the plate membrane and incubate at room temperature for 10 minutes. Read the luminescent signal using Biotek-Synergy 2.
Compounds inhibition against HBsAg at different concentrations are calculated by the following formula:
Inhibition %=(1−value of sample/ave. value of control)×100
50% effective concentrations (EC50) and were calculated with the GraphPad Prism software.

[1] = In vivo pharmacokinetic study, oral, plasma and liver, rat; set-up: species or system Sprague Dawley rats; settings: for Observed level of "active metabolite" AUC0→last, Liver / Observed level of "active metabolite" AUC0→last, Plasma: active metabolite I.6 released after oral prodrug 32 mpk, Sprague-Dawley rats, n = 3; for concentrations of the dosed prodrug itself in plasma and tissue: single PO administration at 32 mg/kg in male SD rats, PK parameters not determined
Experimental: The compounds of this invention were tested orally administered in a formulation of 25% PEG 400: 10% solutol: 65% water with a 5 mL/Kg solution across species of CD-1 mice, C57BL/J6 mice, or Sprague Dawley rats following IACUC guidelines. The rat PK of Compound I.9 and Compound I.10 PO dose of 32 mpk exemplifies the methodology used across species.
The purpose of this rat PK study was to determine the pharmacokinetics of Compound I.9, Compound I.6 and Compound I.10 in plasma following oral gavage administration of Compound I.9 and Compound I.10 to male SD rats. For PO groups, the liver and plasma concentration were measured at 1, 2, 6 and 10 h post-dose. Concentrations of Compound I.9, Compound I.6 and Compound I.10 in plasma and tissue samples were determined by a liquid chromatography tandem mass spectrometry (LC-MS/MS) method. Oral (PO) Dose—Groups 1 and 2 Compound I.9 was prepared as a clear solution in 25% PEG400+10% Solutol+65% water (Adjust the final pH to 7˜8). Groups 3 and 4 Compound I.10 was prepared as a homogeneous suspension in 25% PEG400+10% Solutol+65% water (Adjust the final pH to 7˜8). Blood (about 0.2 mL) was collected at each time point via jugular vein puncture from each study animal into a tube A. The following 4-mix stabilizer for esterase inhibition was added into a pre-chilled commercial tube B containing potassium (K2) EDTA (0.85-1.15 mg) in advance. Then the blood in the tube A will be accurately transferred (4-mix stabilizer: blood, 1:10 (v:v)) into the tube B and placed on wet ice until centrifugation.
The following 4-mix stabilizer was added into the cold homogenizing buffer (MeOH/15 mM PBS 1:2) in advance. Then each tissue was weighed and added the cold homogenizing buffer with stabilizer at the ratio of 1:9 (1 g tissue with 9 mL buffer), then homogenized on wet ice. The tissue homogenate was kept at −60° C. or lower until LC-MS/MS analysis.
Bioanalytical Analysis The concentrations of Compound I.9, Compound I.6 and Compound I.10 in plasma and tissue were determined by using an LC-MS/MS method. Instrumentation and conditions for
Compound I.9, Compound I.10 and Compound I.6 in plasma and tissue homogenate. • LC parameters • Equipment: ACQUITY UPLC System • Analytical column: ACQUITY UPLC HSS T3 1.8 μm 2.1×50 mm • Inject volume: 5 μL for plasma; 3.5 μL for tissue homogenate • Mobile phase A: 0.1% FA & 2 mmol/L HCOONH4 in water/ACN (v/v, 95:5) • Mobile phase B: 0.1% FA & 2 mmol/L HCOONH4 in ACN/water (v/v, 95:5) • Elution Mode: Gradient
• Mass spectrometer: Triple Quad 6500 plus • Ionization mode: ESI (+) • Detective mode: MRM

**Q.** With CC(C)(C)[C@@H]1Cn2nc3c(OCCCCCC(=O)O)cccc3c2-c2cc(=O)c(C(=O)O)cn21 [I.1, (R)-6-(tert-butyl)-10-((5-carboxypentyl)oxy)-2-oxo-6,7-dihydro-2H-pyrido[2′,1′:3,4]pyrazino[1,2-b]indazole-3-carboxylic acid] as the compound, how does the EC50 (HBV S-antigen secretion) read?
**A.** The EC50 was 25.5 nM.

**Q.** Which EC50 (HBV S-antigen secretion) does the source give for CCOC(=O)CCCCCCOc1cccc2c3n(nc12)C[C@@H](C(C)(C)C)n1cc(C(=O)O)c(=O)cc1-3 [I.3, (R)-6-(tert-butyl)-10-((7-ethoxy-7-oxoheptyl)oxy)-2-oxo-6,7-dihydro-2H-pyrido[2′,1′:3,4]pyrazino[1,2-b]indazole-3-carboxylic acid] here?
**A.** The EC50 was 11.8 nM.

**Q.** For CCCCCCCOC(=O)CCCCCCOc1cccc2c3n(nc12)C[C@@H](C(C)(C)C)n1cc(C(=O)O)c(=O)cc1-3 [I.4, (R)-6-(tert-butyl)-10-((7-(heptyloxy)-7-oxoheptyl)oxy)-2-oxo-6,7-dihydro-2H-pyrido[2′,1′:3,4]pyrazino[1,2-b]indazole-3-carboxylic acid], which EC50 (HBV S-antigen secretion) is on record?
**A.** Its EC50 is 14 nM.

**Q.** Which EC50 (HBV S-antigen secretion) does the source give for CCOC(=O)CCCCCCCOc1cccc2c3n(nc12)C[C@@H](C(C)(C)C)n1cc(C(=O)O)c(=O)cc1-3 [I.7, (R)-6-(tert-butyl)-10-((8-ethoxy-8-oxooctyl)oxy)-2-oxo-6,7-dihydro-2H-pyrido[2′,1′:3,4]pyrazino[1,2-b]indazole-3-carboxylic acid] here?
**A.** Its EC50 is 7.1 nM.

**Q.** With CC(C)OC(=O)CCCCCCCOc1cccc2c3n(nc12)C[C@@H](C(C)(C)C)n1cc(C(=O)O)c(=O)cc1-3 [I.9, (R)-6-(tert-butyl)-10-((8-isopropoxy-8-oxooctyl)oxy)-2-oxo-6,7-dihydro-2H-pyrido[2′,1′:3,4]pyrazino[1,2-b]indazole-3-carboxylic acid] as the compound, how does the EC50 (HBV S-antigen secretion) read?
**A.** Its EC50 is 5.3 ± 0.9 nM.

**Q.** What about the “Observed level of "active metabolite" AUC0→last, Liver” value [1] of the same compound?
**A.** Its value is 29367 ng·h/g.

**Q.** And the “Observed level of "active metabolite" AUC0→last, Plasma” value [1]?
**A.** Its value is 290 ng·h/g.

**Q.** And the “concentrations of the dosed prodrug itself in plasma and tissue” value [1]?
**A.** Its value is “most concentrations were below the lower limit of quantitation”.

**Q.** For CCCCOC(=O)CCCCCCCOc1cccc2c3n(nc12)C[C@@H](C(C)(C)C)n1cc(C(=O)O)c(=O)cc1-3 [I.10, (R)-10-((8-butoxy-8-oxooctyl)oxy)-6-(tert-butyl)-2-oxo-6,7-dihydro-2H-pyrido[2′,1′:3,4]pyrazino[1,2-b]indazole-3-carboxylic acid], which EC50 (HBV S-antigen secretion) is on record?
**A.** Its EC50 is 4 ± 0.8 nM.

**Q.** And the “Observed level of "active metabolite" AUC0→last, Liver” value [1]?
**A.** Its value is 19444 ng·h/g.

**Q.** What about the “Observed level of "active metabolite" AUC0→last, Plasma” value [1] of the same compound?
**A.** Its value is 146 ng·h/g.

**Q.** And the “concentrations of the dosed prodrug itself in plasma and tissue” value [1]?
**A.** The value was “most concentrations were below the lower limit of quantitation”.

**Q.** Which EC50 (HBV S-antigen secretion) does the source give for CC(C)(C)[C@@H]1Cn2nc3c(OCCCCCCCCC(=O)O)cccc3c2-c2cc(=O)c(C(=O)O)cn21 [I.13, (R)-6-(tert-butyl)-10-((8-carboxyoctyl)oxy)-2-oxo-6,7-dihydro-2H-pyrido[2′,1′:3,4]pyrazino[1,2-b]indazole-3-carboxylic acid] here?
**A.** Its EC50 is 1.2 ± 0.5 nM.

From patent US20240182472A1, “INDAZOLE PYRIDONE COMPOUNDS AND USES THEREOF” (Bluejay Therapeutics, Inc., priority 2022, published 2024)
